Source: US20090220425A1, “Method to Quantitatively Measure Effect of Psychotropic Drugs on Sensory Discrimination” (DREXEL UNIVERSITY, priority 2006, published 2009)

Tests used:
[1] = tested on: neurons of the infragranular layer of the primary somatosensory cortex of the rat; experiment: Classical neurophysiological measures of somatosensory responses (sensory mapping, magnitude and latency of neural responses to touch stimuli) before and after drug; format: in vivo
[2] = tested on: ensemble of neurons in the deep layers of the forelimb rat primary somatosensory cortex; experiment: PSTH-based classification of stimulus location from single-trial responses of neuron ensembles (information representation); format: in vivo; conditions: for classification performance (bits of information) after drug compared to saline: one ensemble of neurons, touch-stimuli to contralateral body, every bin size tested, FIGS. 1A and 1B

Row | Compound | effectiveness of the medium dose ([1]; FLU 10 (medium) mg/kg, IP injection, dissolved in saline) | number of spikes per stimulus after drug ([1]; fluoxetine 10 mg/kg, two rats, 0.67 spikes per stimulus before drug, significant increase, p<0.001) | latency of the response after drug ([1]; fluoxetine 10 mg/kg, two rats, 20 msec before drug, decrease did not reach significance (p=0.11)) | amount of information represented by the ensemble after administration ([2]; binsize from 40 ms (spike-count) to 1 ms (spike-timing), single-trial discrimination of stimulus location) | classification performance (bits of information) after drug compared to saline [2] | effectiveness of the low dose ([1]; MCPP 0.075 (low) mg/kg, intraperitoneal (IP), dissolved in saline)
1 | CNCCC(Oc1ccc(C(F)(F)F)cc1)c1ccccc1 (stereo not shown) [fluoxetine] | effective | 1.05 spikes per stimulus | 17.5 ms | greater | increased for every bin size tested | 
2 | Clc1cccc(N2CCNCC2)c1 [MCPP, meta-chlorophenylpiperazine] |  |  |  |  | increase for every bin size tested | effective
